Results from publication PMC9090415, “Discovery of small molecule inhibitors of Plasmodium falciparum apicoplast DNA polymerase” (Journal of Enzyme Inhibition and Medicinal Chemistry, 2022).

Molecular target: P. falciparum apicoplast DNA polymerase (Pf-apPOL) (Plasmodium falciparum, UniProt Q8ILY1)
Assay: Fluorescence-based high-throughput DNA polymerase assay (molecular beacon), primary screen and dose-response
Type: biochemical
Details: for DNA Pol: unit not given, 90 min, 10 µM; for IC50: supplemental file 2, sheet IC50 nontoxic compounds, Pf-apPOL
Procedure: The HT assay employs a molecular beacon, a stem-loop DNA template with a Cy3 dye and the Black Hole Quencher on the 3′ and 5′ ends of the DNA, respectively. Pf-apPOL concentration is based on a calculated absorptivity of ε280 = 56750 M^−1 cm^−1. Reactions were carried out at 25 °C, using Corning 3575 […] (well-volume, 20 µL). Assays testing for compound inhibition composed of reaction buffer (pH 7.9 in 50 mM potassium acetate, 20 mM Tris-acetate and 10 mM magnesium acetate), Pf-apPOL (20 nM), DNA substrate (20 nM), dNTPs (6 µM), and compound (10 µM in DMSO). The DNA and nucleotide substrates (dNTPs) were at concentrations of 20 nM and 6 µM, respectively, in the assay. Pf-apPOL was incubated in the reaction buffer with dNTPs and the compound of interest (10 µM, in the assay) at 25 °C for 10 min. The DNA substrate was then added and the reaction was allowed to proceed for 90 min at 25 °C.
Each assay plate contained 16 negative controls (no Pf-apPOL, DMSO present) and 16 positive controls (Pf-apPOL present, no DMSO). The fluorescence of each well was determined using a BioTek Synergy Neo fluorescence plate reader using excitation and emission wavelengths of 555 and 570 nm, respectively.
In the above, Min is the average of fluorescence emission of the negative controls (substrate only), Max the average fluorescence emission from the positive controls (enzyme + substrate), and Test the emission from the assays in the presence of compounds (enzyme + compound + substrates). […] […] The IC50 of each compound was determined using Equation (2): (2) IC50= Vmax/(1+ (I/IC50)^n)
In the above, n measures cooperativity, with n > 1 indicating synergistic binding of more than a single molecule of the compound.
To identify apPOL inhibitors we utilised our previously developed high-throughput DNA polymerase assay. The HT assay is based on a molecular beacon DNA template that forms a stem-loop with a Cy3 dye and the Black Hole Quencher on the 3′ and 5′ ends of the DNA, respectively. DNA polymerase activity extends an annealed primer through the stem region, displacing the fluorophore from the quencher, thereby increasing its fluorescence (Figure 1(A)). The assay accurately recapitulates the kinetic behaviour of apPOL, as measured through more conventional low-throughput gel-based assays. The Z′ factor for the assay described here was 0.9 across all plates (data not shown).
Figure 1. High-throughput screening. (A) The fluorescent-based DNA polymerase assay used to screen the compound libraries. The DNA template strand is a hairpin loop with a primer annealed to the loop. The 3’ end of the primer is 11 bases away from the 6 bp duplex. Strand displacement activity of the DNA polymerase separates the Cy3 dye from the Black hole quencher leading to an increase in fluorescent signal. (B) The high-throughput assay workflow. The DNA polymerase is incubated with […] compound for 10 min prior to addition of the hairpin substrate. The reaction is quenched at 3 different time points and the fluorescent signal is measured and % inhibition is determined using the provided equation.

[1] = DRC-2, 90', concentration 5 (unit not given)
[2] = DRC-2, 180', concentration 20 (unit not given)
[3] = DRC-2, 5', concentration 5 (unit not given)

Chain of P. falciparum apicoplast DNA polymerase (Pf-apPOL) (Q8ILY1 entry or part of it): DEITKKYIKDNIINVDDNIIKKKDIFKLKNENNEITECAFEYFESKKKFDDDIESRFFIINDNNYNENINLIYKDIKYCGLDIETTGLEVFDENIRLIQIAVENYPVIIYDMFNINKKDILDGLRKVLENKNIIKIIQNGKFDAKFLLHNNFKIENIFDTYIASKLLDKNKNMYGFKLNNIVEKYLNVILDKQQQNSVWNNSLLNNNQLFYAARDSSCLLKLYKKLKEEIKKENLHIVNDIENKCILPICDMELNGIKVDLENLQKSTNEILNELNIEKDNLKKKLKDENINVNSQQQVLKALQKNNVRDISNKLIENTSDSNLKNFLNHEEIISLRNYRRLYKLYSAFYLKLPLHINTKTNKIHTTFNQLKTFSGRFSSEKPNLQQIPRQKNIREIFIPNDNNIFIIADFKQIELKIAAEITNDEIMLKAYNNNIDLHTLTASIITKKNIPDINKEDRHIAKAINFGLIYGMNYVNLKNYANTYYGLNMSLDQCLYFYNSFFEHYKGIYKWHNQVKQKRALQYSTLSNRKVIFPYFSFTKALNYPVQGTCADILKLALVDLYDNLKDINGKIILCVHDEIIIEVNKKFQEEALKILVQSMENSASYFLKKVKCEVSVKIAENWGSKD

O=[N+]([O-])/C=C/c1ccc(-c2ccc(Br)cc2)o1 [Molecule 31, O=N(=O)/C=C/c1ccc(o1)c1ccc(cc1)Br]
% inhibition Apo pol 10' (DRC-1, concentration 2.5): 11.7941%
% inhibition Apo pol 10' (DRC-1, concentration 5): 25.8836%
% inhibition Apo pol 10' (DRC-1, concentration 10): 48.5342%
% inhibition Apo pol 10' (DRC-1, concentration 20): 74.9493%
% inhibition Apo pol 10' (DRC-1, concentration 40): 80.1629%
% inhibition Apo pol 10' (DRC-1, concentration 80): 73.881%
% inhibition Apol 90' (DRC-1, 90', concentration 2.5): 4.734%
% inhibition Apol 90' (DRC-1, 90', concentration 5): 14.8546%
% inhibition Apol 90' (DRC-1, 90', concentration 10): 35.3896%
% inhibition Apol 90' (DRC-1, 90', concentration 20): 66.0417%
% inhibition Apol 90' (DRC-1, 90', concentration 40): 79.0677%
% inhibition Apol 90' (DRC-1, 90', concentration 80): 80.1627%
% inhibition apPOL 180' (DRC-1, 180', concentration 2.5): -3.116%
% inhibition apPOL 180' (DRC-1, 180', concentration 5): 3.824%
% inhibition apPOL 180' (DRC-1, 180', concentration 10): 20.4945%
% inhibition apPOL 180' (DRC-1, 180', concentration 20): 51.8012%
% inhibition apPOL 180' (DRC-1, 180', concentration 40): 73.5889%
% inhibition apPOL 180' (DRC-1, 180', concentration 80): 81.6814%
% inhibition Apo pol 5' (DRC-2, 5', concentration 10 (unit not given)): 31%
% inhibition Apol 40' (DRC-2, 40', concentration 10 (unit not given)): 48%
% inhibition Apol 40' (DRC-2, 40', concentration 20 (unit not given)): 53%
% inhibition Apol 40' (DRC-2, 40', concentration 80 (unit not given)): 48%
% inhibition ApPOL 90' [1]: 31%
% inhibition ApPOL 90' (DRC-2, 90', concentration 10 (unit not given)): 48%
% inhibition apPOL 180' (DRC-2, 180', concentration 5 (unit not given)): 21%
% inhibition apPOL 180' [2]: 53%
% inhibition Apo pol 5' (DRC-2, 5', concentration 2.5): 3.31%
% inhibition Apo pol 5' (DRC-2, 5', concentration 5): 21%
% inhibition Apo pol 5' [3]: 21%
% inhibition Apo pol 5' (DRC-2, 5', concentration 10): 31%
% inhibition Apo pol 5' (DRC-2, 5', concentration 20): 26%
% inhibition Apo pol 5' (DRC-2, 5', concentration 40): 18%
% inhibition Apo pol 5' (DRC-2, 5', concentration 80): 2.17%
% inhibition Apol 40' (DRC-2, 40', concentration 2.5): 6%
% inhibition Apol 40' (DRC-2, 40', concentration 5): 33%
% inhibition Apol 40' (DRC-2, 40', concentration 10): 48%
% inhibition Apol 40' (DRC-2, 40', concentration 20): 53%
% inhibition Apol 40' (DRC-2, 40', concentration 40): 54%
% inhibition Apol 40' (DRC-2, 40', concentration 80): 48%
% inhibition ApPOL 90' (DRC-2, 90', concentration 2.5): 4%
% inhibition ApPOL 90' (DRC-2, 90', concentration 5): 31%
% inhibition ApPOL 90' (DRC-2, 90', concentration 10): 48%
% inhibition ApPOL 90' (DRC-2, 90', concentration 20): 56%
% inhibition ApPOL 90' (DRC-2, 90', concentration 40): 60%
% inhibition ApPOL 90' (DRC-2, 90', concentration 80): 59%
% inhibition apPOL 180' (DRC-2, 180', concentration 2.5): -3.28%
% inhibition apPOL 180' (DRC-2, 180', concentration 5): 21%
% inhibition apPOL 180' (DRC-2, 180', concentration 10): 39%
% inhibition apPOL 180' (DRC-2, 180', concentration 20): 53%
% inhibition apPOL 180' (DRC-2, 180', concentration 40): 62%
% inhibition apPOL 180' (DRC-2, 180', concentration 80): 66%
DNA Pol (primary screen value of the 186 hits): 57
DNA Pol (primary screen value, head "DNA Pol"): 57

O=C(c1c[nH]c2ncccc12)N1CCCC1 [Molecule 63]
IC50: 21.4 µM

CC(C)CCNC(=O)c1cnn2c(O)cc(CSc3ccc(Cl)cc3)nc12 [Molecule 101]
IC50: 9.74 µM

COc1ccc(-c2c(C(F)(F)F)nn3c(=O)cc(-c4cccc([N+](=O)[O-])c4)[nH]c23)cc1 [Molecule 16, COc1ccc(cc1)c1c2[nH]c(cc(=O)n2nc1C(F)(F)F)c1cccc(c1)N(=O)=O]
DNA Pol ('DNA Pol' of the 186 hits list (primary screen result)): 98
% inhibition Apo pol 10' (DRC-1, concentration 2.5): 21.756%
% inhibition Apo pol 10' (DRC-1, concentration 5): 31.6281%
% inhibition Apo pol 10' (DRC-1, concentration 10): 53.4209%
% inhibition Apo pol 10' (DRC-1, concentration 20): 92.9592%
% inhibition Apo pol 10' (DRC-1, concentration 40): 96.2671%
% inhibition Apo pol 10' (DRC-1, concentration 80): 97.8824%
% inhibition Apol 90' (DRC-1, 90', concentration 2.5): 17.6214%
% inhibition Apol 90' (DRC-1, 90', concentration 5): 24.4098%
% inhibition Apol 90' (DRC-1, 90', concentration 10): 48.4616%
% inhibition Apol 90' (DRC-1, 90', concentration 20): 90.3483%
% inhibition Apol 90' (DRC-1, 90', concentration 40): 97.371%
% inhibition Apol 90' (DRC-1, 90', concentration 80): 97.5048%
% inhibition apPOL 180' (DRC-1, 180', concentration 2.5): 12.6653%
% inhibition apPOL 180' (DRC-1, 180', concentration 5): 14.5865%
% inhibition apPOL 180' (DRC-1, 180', concentration 10): 38.3358%
% inhibition apPOL 180' (DRC-1, 180', concentration 20): 87.8097%
% inhibition apPOL 180' (DRC-1, 180', concentration 40): 96.7933%
% inhibition apPOL 180' (DRC-1, 180', concentration 80): 96.9215%
% inhibition Apol 40' (DRC-2, 40', concentration 2.5 (unit not given)): 13%
% inhibition Apol 40' (DRC-2, 40', concentration 40 (unit not given)): 75%
% inhibition ApPOL 90' [1]: 14%
% inhibition apPOL 180' [2]: 65%
% inhibition apPOL 180' (DRC-2, 180', concentration 40 (unit not given)): 75%
% inhibition Apo pol 5' (DRC-2, 5', concentration 2.5): 10%
% inhibition Apo pol 5' (DRC-2, 5', concentration 5): 14%
% inhibition Apo pol 5' [3]: 14%
% inhibition Apo pol 5' (DRC-2, 5', concentration 10): 28%
% inhibition Apo pol 5' (DRC-2, 5', concentration 20): 58%
% inhibition Apo pol 5' (DRC-2, 5', concentration 40): 62%
% inhibition Apo pol 5' (DRC-2, 5', concentration 80): 65%
% inhibition Apo pol 5' (DRC-2, 5', concentration 80 (unit not given)): 65%
% inhibition Apol 40' (DRC-2, 40', concentration 2.5): 13%
% inhibition Apol 40' (DRC-2, 40', concentration 5): 16%
% inhibition Apol 40' (DRC-2, 40', concentration 10): 33%
% inhibition Apol 40' (DRC-2, 40', concentration 20): 68%
% inhibition Apol 40' (DRC-2, 40', concentration 40): 75%
% inhibition Apol 40' (DRC-2, 40', concentration 80): 79%
% inhibition ApPOL 90' (DRC-2, 90', concentration 2.5): 13%
% inhibition ApPOL 90' (DRC-2, 90', concentration 2.5 (unit not given)): 13%
% inhibition ApPOL 90' (DRC-2, 90', concentration 5): 14%
% inhibition ApPOL 90' (DRC-2, 90', concentration 10): 31%
% inhibition ApPOL 90' (DRC-2, 90', concentration 20): 69%
% inhibition ApPOL 90' (DRC-2, 90', concentration 40): 77%
% inhibition ApPOL 90' (DRC-2, 90', concentration 80): 83%
% inhibition apPOL 180' (DRC-2, 180', concentration 2.5): 9%
% inhibition apPOL 180' (DRC-2, 180', concentration 5): 7.4%
% inhibition apPOL 180' (DRC-2, 180', concentration 10): 23%
% inhibition apPOL 180' (DRC-2, 180', concentration 20): 65%
% inhibition apPOL 180' (DRC-2, 180', concentration 40): 75%
% inhibition apPOL 180' (DRC-2, 180', concentration 80): 85%
DNA Pol (primary screen value of the library well): 98
